Laboratory results from patent US20080299538A1, “Pathogen Inactivation of Whole Blood” (CARIDIANBCT BIOTECHNOLOGIES, LLC, priority 2003, published 2008).
“And” between values parts separate entries of the source, which are not always exact repeats. Equal entries are not always repeated. Where two headings read alike, the source gives them in different places.

Columns and labels:
T cells = assay: CD69 expression after PMA activation (flow cytometry); assay type: cell-based; conditions: all energies tested (22, 33 and 44 J/mLRBC)
Hepatitis A (HAV) = assay: Virus inactivation in whole blood; assay type: cell-based; conditions: as a function of illumination energy
canine parvovirus (CPV) = assay: Virus inactivation in whole blood; assay type: cell-based; conditions: as a function of illumination energy
[1] = test system: vesicular stomatitis virus (VSV); assay type: cell-based; conditions: as a function of illumination energy
[2] = test system: infectious bovine rhinotracheitis virus (IBR); assay: Virus inactivation in whole blood; assay type: cell-based; conditions: as a function of illumination energy
S. epidermidis = assay: Low bacteria titer study in whole blood; assay type: cell-based; design: key to Bacteria detected (+) or not detected (−) after treatment: +: some of the replicates of the cultures in the panel grew in under 5 days; −: none of the replicates of the cultures in the panel grew in under 5 days; conditions: for Bacteria detected (+) or not detected (−) after treatment: 110 J/mLRBC (n = 3)
Source text: (§1) To test whether pathogen inactivation of whole blood was effective in inactivating clinically relevant levels of bacteria which may be present in the whole blood, low titer bacteria studies were done. After pathogen inactivation of whole blood, the whole blood was separated into a red blood cell (RBC) component and platelet rich plasma (PRP) component. A + symbol means that some of the replicates of the cultures in the panel grew in under 5 days. A − symbol means that none of the replicates of the cultures in the panel grew in under 5 days.

A. baumannii = assay: Low bacteria titer study in whole blood; assay type: cell-based; design: key: +: some of the replicates of the cultures in the panel grew in under 5 days; −: none of the replicates of the cultures in the panel grew in under 5 days; conditions: 110 J/mLRBC (n = 3)
Source text: as §1

S. liquefaciens = assay: Low bacteria titer study in whole blood; assay type: cell-based; design: key: +: some of the replicates of the cultures in the panel grew in under 5 days; −: none of the replicates of the cultures in the panel grew in under 5 days
Source text: as §1

S. pyogenes = assay: Low bacteria titer study in whole blood; assay type: cell-based; design: key: +: some of the replicates of the cultures in the panel grew in under 5 days; −: none of the replicates of the cultures in the panel grew in under 5 days
Source text: as §1

Y. enterocolitica = assay: Low bacteria titer study in whole blood; assay type: cell-based; design: key: +: some of the replicates of the cultures in the panel grew in under 5 days; −: none of the replicates of the cultures in the panel grew in under 5 days
Source text: as §1

red blood cells = assay: Mean osmotic fragility of stored red blood cells; assay type: cell-based; conditions: stored for 42 days; vs untreated cells
Experimental: Osmotic fragility during storage of red blood cells separated from pathogen inactivated whole blood was measured. The normal red blood cell is a relatively impermeable biconcave disc which maintains osmotic equilibrium with the surrounding medium. As the surrounding medium becomes hypotonic, fluid will be taken into the cell to maintain stability. Eventually under very hypotonic conditions the cell will fill to capacity and rupture. Red blood cells with damaged membranes have a decreased capacity to expand, and will rupture in mildly hypotonic conditions that fail to lyse normal red cells. […] Mean osmotic fragility (MOF) is a measure of red blood cell membrane fragility. The higher the MOF, the more fragile the red blood cells are. MOF is the concentration of NaCl where 50% of the red blood cells hemolyze.

white blood cells (WBCs) [3] = assay: WBC functionality, all tested stimuli (summary statements); assay type: cell-based
white blood cells (WBCs) [4] = conditions: for % inhibition of proliferation: Allorecognition: treated responders
white blood cells (WBCs) [5] = assay: WBC proliferation in response to PHA (thymidine incorporation)
white blood cells (WBCs) [6] = assay: Cytokine production in response to LPS (Cytometric Bead Assay); conditions: for % inhibition of IFN-γ production / % inhibition of IL-2 production / % inhibition of IL-4 production / % inhibition of IL-5 production / % inhibition of IL-10 production / % inhibition of TNFα production / % inhibition of IL-1β production / % inhibition of IL-6 production / % inhibition of IL-8 production: LPS
white blood cells (WBCs) [7] = assay: WBC proliferation in response to anti-CD3/CD28 (thymidine incorporation); conditions: for % inhibition of proliferation: CD3/28
[8] = inflammatory cytokines, 22 J/mlRBC
[9] = inflammatory cytokines, 33 J/mlRBC
[10] = inflammatory cytokines, 44 J/mlRBC

SMILES: Cc1cc2nc3c(=O)[nH]c(=O)nc-3n(C[C@H](O)[C@H](O)[C@H](O)CO)c2cc1C [riboflavin, 7,8-dimethyl-10-ribityl isoalloxazine]
- expression of CD69 on T cells after PMA activation (T cells): inhibited expression of CD69
- log reduction of virus (Hepatitis A (HAV)): increases linearly with respect to energy
- log reduction of virus (canine parvovirus (CPV)): increases linearly with respect to energy
- log reduction of virus [1]: increases linearly with respect to energy
- log reduction of virus [2]: increases linearly with respect to energy
- Bacteria detected (+) or not detected (−) after treatment (S. epidermidis; PRP): −
- Bacteria detected (+) or not detected (−) after treatment (S. epidermidis; RBC): +
- bacterial growth in red blood cells (S. epidermidis; 110 J/mLRBC, RBC): grew
- Bacteria detected (+) or not detected (−) after treatment (A. baumannii; PRP): −
- Bacteria detected (+) or not detected (−) after treatment (A. baumannii; RBC): −
- Bacteria detected (+) or not detected (−) after treatment (S. liquefaciens; 80 J/mLRBC (n = 3), PRP): −
- Bacteria detected (+) or not detected (−) after treatment (S. liquefaciens; 80 J/mLRBC (n = 3), RBC): −
- Bacteria detected (+) or not detected (−) after treatment (S. liquefaciens; 110 J/mLRBC (n = 3), PRP): −
- Bacteria detected (+) or not detected (−) after treatment (S. liquefaciens; 110 J/mLRBC (n = 3), RBC): −
- Bacteria detected (+) or not detected (−) after treatment (S. pyogenes; 80 J/mLRBC (n = 3), PRP): −
- Bacteria detected (+) or not detected (−) after treatment (S. pyogenes; 110 J/mLRBC (n = 3), PRP): −
- Bacteria detected (+) or not detected (−) after treatment (S. pyogenes; 110 J/mLRBC (n = 3), RBC): −
- Bacteria detected (+) or not detected (−) after treatment (Y. enterocolitica; 80 J/mLRBC (n = 3), PRP): −
- Bacteria detected (+) or not detected (−) after treatment (Y. enterocolitica; 80 J/mLRBC (n = 3), RBC): −
- Bacteria detected (+) or not detected (−) after treatment (Y. enterocolitica; 110 J/mLRBC (n = 3), PRP): −
- Bacteria detected (+) or not detected (−) after treatment (Y. enterocolitica; 110 J/mLRBC (n = 3), RBC): −
- osmotic fragility (MOF) of red blood cells (red blood cells): slightly more fragile than untreated cells
- inhibition of WBC proliferation / decrease of proliferative response (white blood cells (WBCs) [3]; all tested stimuli and antigen presentation, all energies tested, stimulated control vs stimulated treated cells): 93-99% and > 90%
- functional inactivation of white blood cells in whole blood (white blood cells (WBCs) [3]; riboflavin and light): functionally inactivates the white blood cells
- proliferation in response to PHA, anti-CD3/CD28 and allogeneic stimulator cells (white blood cells (WBCs) [3]; riboflavin+UV light at all energies tested): inhibited proliferation
- % inhibition of proliferation (white blood cells (WBCs) [4]; 22 J/mlRBC): 95 ± 3%
- % inhibition of proliferation (white blood cells (WBCs) [4]; 33 J/mlRBC): 95 ± 2%
- % inhibition of proliferation (white blood cells (WBCs) [4]; 44 J/mlRBC): 96 ± 2%
- proliferation of treated WBCs in response to allogeneic stimulator cells (white blood cells (WBCs) [4]; treated WBCs as responder cells in MLC): not able to proliferate
- % inhibition of proliferation (white blood cells (WBCs) [5]; 22 J/mlRBC): 98 ± 1%
- % inhibition of proliferation (white blood cells (WBCs) [5]; 33 J/mlRBC): 99 ± 1%
- induced proliferation of treated WBCs (white blood cells (WBCs) [5]; 33 J/mlRBC and above, 3 days of incubation): no detectable induced proliferation
- % inhibition of proliferation (white blood cells (WBCs) [5]; 44 J/mlRBC): 99 ± 0%
- inflammatory cytokine production in response to LPS (white blood cells (WBCs) [6]): reduced with treatment, but not to medium control levels
- TH1/TH2 cytokine levels induced by LPS (white blood cells (WBCs) [6]; 44 J/mlRBC): reduced to medium control levels
- % inhibition of IFN-γ production (white blood cells (WBCs) [6]; TH1/TH2 cytokines, 22 J/mlRBC): 63 ± 71%
- % inhibition of IL-2 production (white blood cells (WBCs) [6]; TH1/TH2 cytokines, 22 J/mlRBC): 63 ± 54%
- % inhibition of IL-4 production (white blood cells (WBCs) [6]; TH1/TH2 cytokines, 22 J/mlRBC): 59 ± 65%
- % inhibition of IL-5 production (white blood cells (WBCs) [6]; TH1/TH2 cytokines, 22 J/mlRBC): 89 ± 2%
- % inhibition of IL-10 production (white blood cells (WBCs) [6]; TH1/TH2 cytokines, 22 J/mlRBC): 66 ± 21%
- % inhibition of TNFα production (white blood cells (WBCs) [6]; TH1/TH2 cytokines, 22 J/mlRBC): 45 ± 53%
- % inhibition of IFN-γ production (white blood cells (WBCs) [6]; TH1/TH2 cytokines, 33 J/mlRBC): 93 ± 8%
- % inhibition of IL-4 production (white blood cells (WBCs) [6]; TH1/TH2 cytokines, 33 J/mlRBC): 90 ± 4%
- % inhibition of IL-10 production (white blood cells (WBCs) [6]; TH1/TH2 cytokines, 33 J/mlRBC): 94 ± 4%
- % inhibition of TNFα production (white blood cells (WBCs) [6]; TH1/TH2 cytokines, 33 J/mlRBC): 94 ± 5%
- % inhibition of IFN-γ production (white blood cells (WBCs) [6]; TH1/TH2 cytokines, 44 J/mlRBC): 93 ± 7%
- % inhibition of IL-2 production (white blood cells (WBCs) [6]; TH1/TH2 cytokines, 44 J/mlRBC): 88 ± 4%
- % inhibition of IL-4 production (white blood cells (WBCs) [6]; TH1/TH2 cytokines, 44 J/mlRBC): 90 ± 4%
- % inhibition of IL-5 production (white blood cells (WBCs) [6]; TH1/TH2 cytokines, 44 J/mlRBC): 91 ± 6%
- % inhibition of IL-10 production (white blood cells (WBCs) [6]; TH1/TH2 cytokines, 44 J/mlRBC): 99 ± 1%
- % inhibition of TNFα production (white blood cells (WBCs) [6]; TH1/TH2 cytokines, 44 J/mlRBC): 94 ± 8%
- % inhibition of IL-1β production (white blood cells (WBCs) [6]; [8]): 68 ± 19%
- % inhibition of IL-6 production (white blood cells (WBCs) [6]; [8]): 84 ± 8%
- % inhibition of IL-8 production (white blood cells (WBCs) [6]; [8]): 85 ± 8%
- % inhibition of IL-10 production (white blood cells (WBCs) [6]; [8]): 63 ± 21%
- % inhibition of TNFα production (white blood cells (WBCs) [6]; [8]): 54 ± 35%
- % inhibition of IL-1β production (white blood cells (WBCs) [6]; [9]): 91 ± 8%
- % inhibition of IL-6 production (white blood cells (WBCs) [6]; [9]): 96 ± 3%
- % inhibition of IL-8 production (white blood cells (WBCs) [6]; [9]): 96 ± 4%
- % inhibition of IL-10 production (white blood cells (WBCs) [6]; [9]): 94 ± 5%
- % inhibition of TNFα production (white blood cells (WBCs) [6]; [9]): 92 ± 8%
- % inhibition of IL-1β production (white blood cells (WBCs) [6]; [10]): 98 ± 3%
- % inhibition of IL-6 production (white blood cells (WBCs) [6]; [10]): 99 ± 1%
- % inhibition of IL-8 production (white blood cells (WBCs) [6]; [10]): 99 ± 1%
- % inhibition of IL-10 production (white blood cells (WBCs) [6]; [10]): 99 ± 1%
- % inhibition of TNFα production (white blood cells (WBCs) [6]; [10]): 98 ± 2%
- % inhibition of proliferation (white blood cells (WBCs) [7]; 22 J/mlRBC): 93 ± 2%
- % inhibition of proliferation (white blood cells (WBCs) [7]; 33 J/mlRBC): 99 ± 0%
- % inhibition of proliferation (white blood cells (WBCs) [7]; 44 J/mlRBC): 99 ± 0%
- induced proliferation of treated WBCs (white blood cells (WBCs) [7]; plate-bound anti-CD3 plus anti-CD28 antibodies, 33 J/mlRBC and above, 3 days of incubation): no detectable induced proliferation
